Values after ≈ are worked out from the molar mass of the structure shown. One block for each molecule: values may come before it.
Tests used:
[1] = Toxicity in male Beagle dog assessed as fold increase in GLDH level […] at 100 mg/kg, po QD for 7 days relative to baseline pretreatment; type: organism-based, Canis lupus familiaris; conditions: in vivo, 168 h, time 7 day
[2] = Solubility of the compound in FaSSGF at pH 1.6; type: physicochemical
[3] = Toxicity in male Beagle dog assessed as fold increase in ALP level […] at 100 mg/kg, po QD for 7 days relative to baseline pretreatment; type: organism-based, Canis lupus familiaris; conditions: in vivo, 168 h, time 7 day
[4] = Cmax in male Beagle dog at 100 mg/kg, po QD and measured after 7 days by LC-MS/MS analysis; type: ADME, organism-based, Canis lupus familiaris; parameters: dose 100 mg/kg, time 7 day, route po; conditions: in vivo
[5] = Toxicity in male Beagle dog assessed as fold increase in ALT level […] at 100 mg/kg, po QD for 7 days relative to baseline pretreatment; type: organism-based, Canis lupus familiaris; conditions: in vivo, 168 h, time 7 day
[6] = Half life in Wistar Han rat plasma at 20 mg/kg, IM and measured after 21 days by LC-MS/MS analysis; type: ADME, organism-based; conditions: time 21 day
[7] = Toxicity in female Beagle dog assessed as change in AST level at 100 mg/kg, po QD for 7 days relative to baseline pretreatment; type: organism-based, Canis lupus familiaris; conditions: in vivo, 168 h, time 7 day
[8] = Toxicity in female Beagle dog assessed as change in TBA level at 100 mg/kg, po QD for 7 days relative to baseline pretreatment; type: organism-based, Canis lupus familiaris; conditions: in vivo, 168 h, time 7 day
[9] = Half life in Wistar Han rat plasma at 1 mg/kg,iv and measured upto 96 hrs by LC-MS/MS analysis; type: ADME, organism-based
[10] = Plasma concentration in Beagle dog at 5 mg/kg, IM and measured after 10 days by LC-MS/MS analysis; type: ADME, organism-based, Canis lupus familiaris; conditions: time 10 day
[11] = Drug metabolism in Beagle dog plasma assessed as metabolite formation at 100 mg/kg, po for 7 days by LC-MS/MS analysis; type: ADME, organism-based, Canis lupus familiaris; conditions: in vivo, 168 h, time 7 day
[12] = Solubility of compound in FeSSIF at pH 5; type: physicochemical
[13] = Toxicity in male Beagle dog assessed as increase in mitotic figures in hepatocytes at 100 mg/kg, po QD for 7 days by microscopy; type: organism-based, Canis lupus familiaris; conditions: in vivo, 168 h, time 7 day
[14] = Cmax in male Beagle dog at 100 mg/kg, po QD and measured after 1 day by LC-MS/MS analysis; type: ADME, organism-based, Canis lupus familiaris; parameters: time 1 day, dose 100 mg/kg, route po; conditions: in vivo
[15] = Clearance in Sprague-Dawley rat at 1 mg/kg, iv and measured upto 96 hrs by LC-MS/MS analysis; type: ADME, organism-based; conditions: in vivo
[16] = Solubility of the compound at pH 6.5 buffer; type: physicochemical
[17] = Toxicity in male Beagle dog assessed as fold increase in TBA level […] at 100 mg/kg, po QD for 7 days relative to baseline pretreatment; type: organism-based, Canis lupus familiaris; conditions: in vivo, 168 h, time 7 day
[18] = test system: Human immunodeficiency virus 1; test: Antiviral activity against HIV-1 NLRep-Rluc infected in human MT2 cells assessed as inhibition of viral growth incubated for 96 hrs by renilla luciferase assay; type: functional, organism-based
[19] = Toxicity in male Beagle dog assessed as fold increase in AST level […] at 100 mg/kg, po QD for 7 days relative to baseline pretreatment; type: organism-based, Canis lupus familiaris; conditions: in vivo, 168 h, time 7 day
[20] = Half life in Beagle dog plasma at 5 mg/kg,SC and measured after 21 days by LC-MS/MS analysis; type: ADME, organism-based, Canis lupus familiaris; conditions: time 21 day
[21] = Toxicity in female Beagle dog assessed as change in ALT level at 100 mg/kg, po QD for 7 days relative to baseline pretreatment; type: organism-based, Canis lupus familiaris; conditions: in vivo, 168 h, time 7 day
[22] = AUC (0 to 24) in male Beagle dog at 100 mg/kg, po QD and measured after 1 day by LC-MS/MS analysis; type: ADME, organism-based, Canis lupus familiaris; parameters: dose 100 mg/kg, time 1 day, route po; conditions: in vivo
[23] = AUC (0 to 24) in female Beagle dog at 100 mg/kg, po QD and measured after 7 days by LC-MS/MS analysis; type: ADME, organism-based, Canis lupus familiaris; parameters: dose 100 mg/kg, time 7 day, route po; conditions: in vivo
[24] = Half life in Wistar Han rat plasma at 20 mg/kg, SC and measured after 21 days by LC-MS/MS analysis; type: ADME, organism-based; conditions: time 21 day
[25] = Cmax in female Beagle dog at 100 mg/kg, po QD and measured after 7 days by LC-MS/MS analysis; type: ADME, organism-based, Canis lupus familiaris; parameters: time 7 day, dose 100 mg/kg, route po; conditions: in vivo
[26] = Toxicity in female Beagle dog assessed as change in GLDH level at 100 mg/kg, po QD for 7 days relative to baseline pretreatment; type: organism-based, Canis lupus familiaris; conditions: in vivo, 168 h, time 7 day
[27] = Solubility of the compound at pH 2 buffer; type: physicochemical
[28] = Toxicity in female Beagle dog assessed as change in ALP level at 100 mg/kg, po QD for 7 days relative to baseline pretreatment; type: organism-based, Canis lupus familiaris; conditions: in vivo, 168 h, time 7 day
[29] = Plasma concentration in Beagle dog at 5 mg/kg, SC and measured after 10 days by LC-MS/MS analysis; type: ADME, organism-based, Canis lupus familiaris; conditions: time 10 day
[30] = AUC (0 to 24) in female Beagle dog at 100 mg/kg, po QD and measured after 1 day by LC-MS/MS analysis; type: ADME, organism-based, Canis lupus familiaris; parameters: time 1 day, dose 100 mg/kg, route po; conditions: in vivo
[31] = Plasma concentration in Wistar Han rat at 20 mg/kg, IM and measured at 21 days by LC-MS/MS analysis; type: ADME, organism-based; conditions: time 21 day
[32] = Plasma concentration in Wistar Han rat at 20 mg/kg, SC and measured at 21 days by LC-MS/MS analysis; type: ADME, organism-based; conditions: time 21 day
[33] = Half life in Beagle dog plasma at 5 mg/kg,IM and measured after 21 days by LC-MS/MS analysis; type: ADME, organism-based, Canis lupus familiaris; conditions: time 21 day
[34] = Cmax in female Beagle dog at 100 mg/kg, po QD and measured after 1 day by LC-MS/MS analysis; type: ADME, organism-based, Canis lupus familiaris; parameters: dose 100 mg/kg, time 1 day, route po; conditions: in vivo
[35] = Toxicity in male Beagle dog assessed as hyperplasia of Kupffer cells at 100 mg/kg, po QD for 7 days by microscopy; type: organism-based, Canis lupus familiaris; conditions: in vivo, 168 h, time 7 day
[36] = AUC (0 to 24) in male Beagle dog at 100 mg/kg, po QD and measured after 7 days by LC-MS/MS analysis; type: ADME, organism-based, Canis lupus familiaris; parameters: dose 100 mg/kg, time 7 day, route po; conditions: in vivo
[37] = Solubility of the compound in FaSSIF at pH 6.5; type: physicochemical
MT2 = test: (§1) Cytotoxicity against human MT2 cells assessed as reduction in cell viability incubated for 4 days by XTT assay; type: toxicity, cell-based; conditions: mt2, 96 h, 96 h, time 4 day
[38] = Selectivity index, ratio of CC50 for cytotoxicity against human MT2 cells to EC50 for antiviral activity against HIV-1 NLRep-Rluc infected in human MT2 cells; type: toxicity, cell-based; conditions: read-out: Ratio CC50/EC50
[39] = as §1; type: toxicity, cell-based; conditions: MT2 cells, time 4 day

solubility [2]: < 1 µg/mL | Cmax [4]: 13600 ng/mL | half-life [6]: 39 h | half-life [9]: 3.2 h | concentration at 240 h [10]: < 2.2 ng/mL | Drug metabolism [11]: Metabolite_Detected | solubility [12]: 22 µg/mL (≈ 24 µM) | Cmax [14]: 451 ng/mL | clearance [15]: 8.9 mL/min/kg | solubility [16]: < 1 µg/mL | half-life [20]: 39 h | AUC at 24 h [22]: 3710 ng·h/mL | AUC at 168 h [23]: 6780 ng·h/mL | half-life [24]: 39 h | Cmax [25]: 1320 ng/mL | solubility [27]: < 1 µg/mL | concentration at 240 h [29]: < 2.2 ng/mL | AUC at 24 h [30]: 1360 ng·h/mL | concentration at 504 h [31]: 10 ng/mL | concentration at 504 h [32]: 10 ng/mL | half-life [33]: 39 h | Cmax [34]: 344 ng/mL | AUC at 168 h [36]: 299000 ng·h/mL | solubility [37]: < 1 µg/mL
Compound: C[C@@H]1CN(c2ccc3c(=O)n(-c4ccc(Cl)c5c(NS(C)(=O)=O)nn(C)c45)c([C@H](Cc4cc(F)cc(F)c4)NC(=O)Cn4nc(C(F)F)c5c4C(F)(F)[C@@H]4C[C@H]54)nc3c2)C[C@H](C)O1
fold change (FC) [1]: 94 | fold change (FC) [3]: 4.9 | fold change (FC) [5]: 87 | Activity [7]: Non-Toxic | Activity [8]: Non-Toxic | Activity [13]: Toxic | fold change (FC) [17]: 3 | EC50 ([18]; Human immunodeficiency virus 1, NLRep-Rluc, MT2, 96 h): 0.039 nM | fold change (FC) [19]: 4.8 | Activity [21]: Non-Toxic | Activity [26]: Non-Toxic | Activity [28]: Non-Toxic | Activity [35]: Toxic

clearance [15]: 8.3 mL/min/kg
Compound: COc1ccc2c(=O)n(-c3ccc(Cl)c4c(NS(C)(=O)=O)nn(C)c34)c([C@H](Cc3cc(F)cc(F)c3)NC(=O)Cn3nc(C(F)F)c4c3C(F)(F)[C@@H]3C[C@H]43)nc2c1 (stereo in doubt; 12b)
CC50 (MT2): > 20000 nM | EC50 ([18]; mt2): 0.058 nM | selectivity ratio [38]: > 1000

Compound: COc1ccc2nc([C@H](Cc3cc(F)cc(F)c3)NC(=O)Cn3nc(C(F)F)c4c3C(F)(F)[C@@H]3C[C@H]43)n(-c3ccc(Cl)c4c(NS(C)(=O)=O)nn(C)c34)c(=O)c2c1 (stereo in doubt; 12c)
CC50 at 96 h [39]: > 20000 nM | EC50 ([18]; mt2): 0.15 nM | selectivity ratio [38]: > 1000

Source: ChEMBL document CHEMBL5316333, “Potent Long-Acting Inhibitors Targeting the HIV-1 Capsid Based on a Versatile Quinazolin-4-one Scaffold” (J Med Chem, 2023)
